Assay results reported in US7425551B2, “Malonamide derivatives” (Hoffmann-La Roche Inc., priority 2006, dated 2008).

Molecular target: T1, γ-secretase (Homo sapiens, UniProt P49768)
T1 construct: uses a HEK293 membrane fraction as a source of γ-secretase; endogenous in cells; host or cells: HEK293 (microsomal membrane fraction, solubilised in 0.25% CHAPSO)
Assay: in vitro assay of γ-secretase activity (HEK293 membrane fraction, recombinant APP substrate, Abeta ELISA)
Assay type: biochemical
Conditions: γ-secretase inhibition; HEK293 membrane fraction solubilized in 0.25% CHAPSO, recombinant human APP C-terminal 100 amino acids substrate, Abeta detected by ELISA
Text: Description of 1γ-Secretase Assay The activity of test compounds can be evaluated in assays which measure the proteolytic cleavage of suitable substrates by γ-secretase activity. These can be cellular assays where e.g., a substrate of the γ-secretase is fused in its cytoplasmic domain to a transcription factor. Cells are transfected with this fusion gene and a reporter gene, e.g., firefly luciferase, which expression is enhanced by the transcription factor. Cleavage of the fused substrate by γ-secretase will lead to expression of the reporter gene which can be monitored in appropriate assays. The γ-secretase activity can also be determined in cell-free in vitro assays where e.g., a cell lysate containing the γ-secretase complex is incubated with a suitable APP-derived substrate which is cleaved to the Abeta peptides. The amount of produced peptides can be determined with specific ELISA assays. Cell lines of neuronal origin secrete Abeta peptides which can be measured with the specific ELISA assay. Treatment with compounds which inhibit γ-secretase leads to a reduction of secreted Abeta thus providing a measure of inhibition. The in vitro assay of γ-secretase activity uses a HEK293 membrane fraction as a source of γ-secretase and a recombinant APP substrate. Latter consist of the C-terminal 100 amino acids of human APP fused to a 6× Histidin tail for purification which is expressed in E. coli in a regulatable expression vector, e.g. pEt15. This recombinant protein corresponds to the truncated APP fragment which results after […] of the extracellular domain and which constitutes the γ-secretase substrate. The assay principle is described in Li Y M et al, PNAS 97(11), 6138-6143 (2000). Hek293 cells are mechanically disrupted and the microsomal fraction is isolated by differential centrifugation. The membranes are solubilized in detergent (0.25% CHAPSO) and incubated with the APP substrate. The Abeta peptides which are produced by γ-secretase cleavage of the substrate are detected by specific ELISA assays as described (Brockhaus M et al, Neuroreport 9(7), 1481-1486 (1998).

Row | SMILES | IC50 [nM]
1 | CCOC(C(=O)NCC(F)(F)C(F)(F)F)C(=O)N[C@@H]1C(=O)N(CCO)c2ccccc2-c2ccccc21 (stereo partly drawn) [Example 17, 2-Ethoxy-N—[(S)-5-(2-hydroxy-ethyl)-6-oxo-6,7-dihydro-5H-dibenzo[b,d]azepin-7-yl]-N′-(2,2,3,3,3-pentafluoro-propyl)-malonamide] | 4
2 | C[C@@](F)(C(=O)NCC(F)(F)C(F)(F)F)C(=O)N[C@@H]1C(=O)N(CCOCc2ccccc2)c2ccccc2-c2ccccc21 [Example 22, (R)—N—[(S)-5-(2-Benzyloxy-ethyl)-6-oxo-6,7-dihydro-5H-dibenzo[b,d]azepin-7-yl]-2-fluoro-2-methyl-N′-(2,2,3,3,3-pentafluoro-propyl)-malonamide] | 2
3 | C[C@](F)(C(=O)NCC(F)(F)C(F)(F)F)C(=O)N[C@@H]1C(=O)N(CCOCc2ccccc2)c2ccccc2-c2ccccc21 [Example 23, (S)—N—[(S)-5-(2-Benzyloxy-ethyl)-6-oxo-6,7-dihydro-5H-dibenzo[b,d]azepin-7-yl]-2-fluoro-2-methyl-N′-(2,2,3,3,3-pentafluoro-propyl)-malonamide] | 16
4 | COCCN1C(=O)[C@@H](NC(=O)CC(=O)NCC(F)(F)C(F)(F)F)c2ccccc2-c2ccccc21 [Example 24, N—[(S)-5-(2-Methoxy-ethyl)-6-oxo-6,7-dihydro-5H-dibenzo[b,d]azepin-7-yl]-N′-(2,2,3,3,3-pentafluoro-propyl)-malonamide] | 34
5 | COCCN1C(=O)[C@@H](NC(=O)[C@H](C)OC(=O)NCC(F)(F)C(F)(F)F)c2ccccc2-c2ccccc21 [Example 25, (2,2,3,3,3-Pentafluoro-propyl)-carbamic acid (S)-1-[(S)-5-(2-methoxy-ethyl)-6-oxo-6,7-dihydro-5H-dibenzo[b,d]azepin-7-ylcarbamoyl]-ethyl ester] | 6
6 | C[C@@](F)(C(=O)NCC(F)(F)C(F)(F)F)C(=O)N[C@@H]1C(=O)N(CCO)c2ccccc2-c2ccccc21 [Example 26, (R)-2-Fluoro-N—[(S)-5-(2-hydroxy-ethyl)-6-oxo-6,7-dihydro-5H-dibenzo[b,d]azepin-7-yl]-2-methyl-N′-(2,2,3,3,3-pentafluoro-propyl)-malonamide] | 1
7 | C[C@](F)(C(=O)NCC(F)(F)C(F)(F)F)C(=O)N[C@@H]1C(=O)N(CCO)c2ccccc2-c2ccccc21 [Example 27, (S)-2-Fluoro-N—[(S)-5-(2-hydroxy-ethyl)-6-oxo-6,7-dihydro-5H-dibenzo[b,d]azepin-7-yl]-2-methyl-N′-(2,2,3,3,3-pentafluoro-propyl)-malonamide] | 4
8 | O=C(CC(=O)N[C@@H]1C(=O)N(CCOCc2ccccc2)c2ccccc2-c2ccccc21)NCCC(F)(F)F [Example 28, N—[(S)-5-(2-Benzyloxy-ethyl)-6-oxo-6,7-dihydro-5H-dibenzo[b,d]azepin-7-yl]-N′-(3,3,3-trifluoro-propyl)-malonamide] | 68
9 | O=C(CC(=O)N[C@@H]1C(=O)N(CCOCc2ccccc2)c2ccccc2-c2ccccc21)NCCC(F)(F)C(F)(F)F [Example 29, N—[(S)-5-(2-Benzyloxy-ethyl)-6-oxo-6,7-dihydro-5H-dibenzo[b,d]azepin-7-yl]-N′-(3,3,4,4,4-pentafluoro-butyl)-malonamide] | 18
10 | O=C(CC(=O)N[C@@H]1C(=O)N(CCO)c2ccccc2-c2ccccc21)NCCC(F)(F)F [Example 30, N—[(S)-5-(2-Hydroxy-ethyl)-6-oxo-6,7-dihydro-5H-dibenzo[b,d]azepin-7-yl]-N′-(3,3,3-trifluoro-propyl)-malonamide] | 75
11 | O=C(CC(=O)N[C@@H]1C(=O)N(CCO)c2ccccc2-c2ccccc21)NCCC(F)(F)C(F)(F)F [Example 31, N—[(S)-5-(2-Hydroxy-ethyl)-6-oxo-6,7-dihydro-5H-dibenzo[b,d]azepin-7-yl]-N′-(3,3,4,4,4-pentafluoro-butyl)-malonamide] | 200
12 | COCCN1C(=O)[C@@H](NC(=O)[C@@](C)(F)C(=O)NCC(F)(F)C(F)(F)F)c2ccccc2-c2ccccc21 [Example 32, (S)-2-Fluoro-N—[(S)-5-(2-methoxy-ethyl)-6-oxo-6,7-dihydro-5H-dibenzo[b,d]azepin-7-yl]-2-methyl-N′-(2,2,3,3,3-pentafluoro-propyl)-malonamide] | 18
13 | COCCN1C(=O)[C@@H](NC(=O)[C@](C)(F)C(=O)NCC(F)(F)C(F)(F)F)c2ccccc2-c2ccccc21 [Example 33, (R)-2-Fluoro-N—[(S)-5-(2-methoxy-ethyl)-6-oxo-6,7-dihydro-5H-dibenzo[b,d]azepin-7-yl]-2-methyl-N′-(2,2,3,3,3-pentafluoro-propyl)-malonamide] | 4
14 | COCCN1C(=O)[C@@H](NC(=O)C(C)(O)C(=O)NCC(F)(F)C(F)(F)F)c2ccccc2-c2ccccc21 (stereo partly drawn) [Example 34, 2-Hydroxy-N—[(S)-5-(2-methoxy-ethyl)-6-oxo-6,7-dihydro-5H-dibenzo[b,d]azepin-7-yl]-2-methyl-N′-(2,2,3,3,3-pentafluoro-propyl)-malonamide] | 4
15 | C[C@H](OC(=O)NCCC(F)(F)F)C(=O)N[C@@H]1C(=O)N(CCOCc2ccccc2)c2ccccc2-c2ccccc21 [Example 35, (3,3,3-Trifluoro-propyl)-carbamic acid (S)-1-[(S)-5-(2-benzyloxy-ethyl)-6-oxo-6,7-dihydro-5H-dibenzo[b,d]azepin-7-ylcarbamoyl]-ethyl ester] | 22
16 | C[C@H](OC(=O)NCCC(F)(F)C(F)(F)F)C(=O)N[C@@H]1C(=O)N(CCOCc2ccccc2)c2ccccc2-c2ccccc21 [Example 36, (3,3,4,4,4-Pentafluoro-butyl)-carbamic acid (S)-1-[(S)-5-(2-benzyloxy-ethyl)-6-oxo-6,7-dihydro-5H-dibenzo[b,d]azepin-7-ylcarbamoyl]-ethyl ester] | 13
17 | C[C@H](OC(=O)NCC(F)(F)F)C(=O)N[C@@H]1C(=O)N(CCOCc2ccccc2)c2ccccc2-c2ccccc21 [Example 37, (2,2,2-Trifluoro-ethyl)-carbamic acid (S)-1-[(S)-5-(2-benzyloxy-ethyl)-6-oxo-6,7-dihydro-5H-dibenzo[b,d]azepin-7-ylcarbamoyl]-ethyl ester] | 18
18 | C[C@H](OC(=O)NCCC(F)(F)F)C(=O)N[C@@H]1C(=O)N(CCO)c2ccccc2-c2ccccc21 [Example 39, (3,3,3-Trifluoro-propyl)-carbamic acid (S)-1-[(S)-5-(2-hydroxy-ethyl)-6-oxo-6,7-dihydro-5H-dibenzo[b,d]azepin-7-ylcarbamoyl]-ethyl ester] | 16
19 | C[C@@](F)(C(=O)NCCC(F)(F)C(F)(F)F)C(=O)N[C@@H]1C(=O)N(CCOCc2ccccc2)c2ccccc2-c2ccccc21 [Example 40, (R)—N—[(S)-5-(2-Benzyloxy-ethyl)-6-oxo-6,7-dihydro-5H-dibenzo[b,d]azepin-7-yl]-2-fluoro-2-methyl-N′-(3,3,4,4,4-pentafluoro-butyl)-malonamide] | 5
20 | C[C@H](OC(=O)NCCF)C(=O)N[C@@H]1C(=O)N(CCOCc2ccccc2)c2ccccc2-c2ccccc21 [Example 41, (2-Fluoro-ethyl)-carbamic acid (S)-1-[(S)-5-(2-benzyloxy-ethyl)-6-oxo-6,7-dihydro-5H-dibenzo[b,d]azepin-7-ylcarbamoyl]-ethyl ester] | 480
21 | C[C@@](F)(C(=O)NCCC(F)(F)C(F)(F)F)C(=O)N[C@@H]1C(=O)N(CCO)c2ccccc2-c2ccccc21 [Example 42, (R)-2-Fluoro-N—[(S)-5-(2-hydroxy-ethyl)-6-oxo-6,7-dihydro-5H-dibenzo[b,d]azepin-7-yl]-2-methyl-N′-(3,3,4,4,4-pentafluoro-butyl)-malonamide] | 1
22 | C[C@](F)(C(=O)NCC(F)(F)F)C(=O)N[C@@H]1C(=O)N(CCOCc2ccccc2)c2ccccc2-c2ccccc21 [Example 43, (S)—N—[(S)-5-(2-Benzyloxy-ethyl)-6-oxo-6,7-dihydro-5H-dibenzo[b,d]azepin-7-yl]-2-fluoro-2-methyl-N′-(2,2,2-trifluoro-ethyl)-malonamide] | 13
23 | C[C@](F)(C(=O)NCCC(F)(F)C(F)(F)F)C(=O)N[C@@H]1C(=O)N(CCOCc2ccccc2)c2ccccc2-c2ccccc21 [Example 44, (S)—N—[(S)-5-(2-Benzyloxy-ethyl)-6-oxo-6,7-dihydro-5H-dibenzo[b,d]azepin-7-yl]-2-fluoro-2-methyl-N′-(3,3,4,4,4-pentafluoro-butyl)-malonamide] | 9
24 | C[C@H](OC(=O)NCCF)C(=O)N[C@@H]1C(=O)N(CCO)c2ccccc2-c2ccccc21 [Example 47, (2-Fluoro-ethyl)-carbamic acid (S)-1-[(S)-5-(2-hydroxy-ethyl)-6-oxo-6,7-dihydro-5H-dibenzo[b,d]azepin-7-ylcarbamoyl]-ethyl ester] | 755
